Experimental data as given in patent US10829464B2, “Benzoheterocyclic alkylamine compounds and use thereof” (priority 2016, dated 2020).
Converted amounts (≈) assume the structure as drawn. Structures can show the parent of a compound that is named as a salt.

Experiments:
LRSA202 = experiment: In vivo pharmacodynamics evaluation in infected mice; conditions: BALB/c mice infected retroorbitally with LRSA202
Protocol: (§1) Compound IA-25 was used as a representative compound. The laboratory SPF-grade female BALB/c mice were purchased from Shanghai Jiesijie Laboratory Animal Co., Ltd. and bred under aseptic condition to 6-8 weeks old. The S. aureus strains which had been cultured overnight were transferred to fresh and sterile TSB medium and cultured at 37° C. and 250 rpm for 3 h to exponential growth phase; the culture was washed twice with PBS buffer, and then suspended in PBS for later use. In the mouse infection assay, the mice were divided into several groups, each containing 10 mice.

NRS108 = experiment: as above; conditions: BALB/c mice infected retroorbitally with NRS108
Protocol: as §1

NF65Y = experiment: as above; conditions: BALB/c mice infected retroorbitally with NF65Y
Protocol: as §1

Mu50 = experiment: as above; conditions: BALB/c mice infected retroorbitally with Mu50
Protocol: as §1

LRSA56 = experiment: as above; conditions: BALB/c mice infected retroorbitally with LRSA56
Protocol: as §1

NRS271 = experiment: as above; conditions: BALB/c mice infected retroorbitally with NRS271
Protocol: as §1

strain Newman = experiment: as above; conditions: BALB/c mice infected retroorbitally with Newman
Protocol: as §1

S. aureus strain Newman = experiment: IC50 determination of inhibition of staphyloxanthin synthesis; type: cell-based; conditions: Staphylococcus aureus; S. aureus strain Newman, Table 1; read-out: IC50, inhibitory activity on staphyloxanthin synthesis
Protocol: Selection of compound concentrations: based on the preliminary screening results, the ability of each compound to inhibit staphyloxanthin synthesis was determined. […] According to the assay results, 10 different concentration gradients were designed for each compound, such that the ability to inhibit staphyloxanthin synthesis comprised substantially from 0% to 100%.
Culture of the strains: single colonies of strain Newman and crtN mutant strain were picked from TSA plates, added into test tubes containing 4 mL of sterile TSB medium, and cultured at 37° C. and 250 rpm for 12 h for later use.
The relative level of staphyloxanthin synthesis at each concentration of the compound of the invention=A450 (sample)/A450 (negative control)*100%. With the molar concentration of the compound as the abscissa and the relative level of staphyloxanthin synthesis as the ordinate, a curve fitting of inhibitor concentration-inhibition rate (log(inhibitor) vs response) was performed in Graphpad prism 5.0 software, and the IC50 of the compound for inhibiting staphyloxanthin synthesis was calculated by software based on the fitting results.
S. aureus was selected for IC50 determination with respect to activity of inhibiting staphyloxanthin synthesis. […]

[1] = test system: Staphylococcus aureus subsp. aureus str. strain Newman; experiment: Preliminary screening assay of inhibition of staphyloxanthin synthesis; type: cell-based; conditions: 50, 10, 5, 2.5, 1.25, 0.625, 0.3125 and 0 μM from left to right
Protocol: Strains used for assay: freshly activated wild-type Staphylococcus aureus subsp. aureus str. strain Newman and its homologous mutant strain having crtN insertion (without staphyloxanthin synthesis).
Medium for assay: Tryptone Soy broth (TSB), a product from Oxid Corporation, the United Kingdom, which was formulated with distilled water, sterilized at 121° C. for 15 min for later use.
Method of Preliminary Screening Assay:
(1) Preparation of compound: the compound of the invention was dissolved in dimethyl sulfoxide (DMSO) to prepare a stock solution having a concentration of 10 mM; 400 μL of DMSO was added to 100 μL of the stock solution to get a dilution with a concentration of 2 mM; 250 μL (2 mM) of the dilution was taken after mixing, and an equal amount of DMSO was added thereto for 2-fold dilution to get a solution with a concentration of […] for later use.
(2) Culture of the strain: single colonies of strain Newman were picked from TSA plates into a test tube containing 4 mL of sterile TSB medium, and cultured at 37° C. and 250 rpm for 12 h for later use.

[2] = test system: wild-type S. aureus Newman strain; experiment: Verification assay using CrtN as a target (HPLC of carotenoid extract); type: cell-based, Staphylococcus aureus; conditions: 100 μM added to wild-type strain Newman, 440 nm
Trichophyton rubrum = experiment: In vitro antifungal assay (micro liquid-based dilution); type: cell-based; conditions: read-out: Antifungal Activities, MIC80
Microsporum gypseum = experiment: as above; type: cell-based; conditions: Nannizzia gypsea, read-out: Antifungal Activities, MIC80
Tinea barbae = experiment: as above; type: cell-based; conditions: read-out: Antifungal Activities, MIC80
HEK293 = experiment: In vitro cytotoxicity assay
HepG2 = experiment: In vitro cytotoxicity assay
CYP enzyme subtype 2C19 = CYP enzyme subtype 2C19 (Homo sapiens, UniProt P33261); experiment: Inhibition assay on hepatic CYP450 enzyme; type: in vitro ADME; conditions: CYP 2C19; read-out: Half inhibitory concentration (IC50)
CYP enzyme subtype 2C19, sequence (P33261 whole entry): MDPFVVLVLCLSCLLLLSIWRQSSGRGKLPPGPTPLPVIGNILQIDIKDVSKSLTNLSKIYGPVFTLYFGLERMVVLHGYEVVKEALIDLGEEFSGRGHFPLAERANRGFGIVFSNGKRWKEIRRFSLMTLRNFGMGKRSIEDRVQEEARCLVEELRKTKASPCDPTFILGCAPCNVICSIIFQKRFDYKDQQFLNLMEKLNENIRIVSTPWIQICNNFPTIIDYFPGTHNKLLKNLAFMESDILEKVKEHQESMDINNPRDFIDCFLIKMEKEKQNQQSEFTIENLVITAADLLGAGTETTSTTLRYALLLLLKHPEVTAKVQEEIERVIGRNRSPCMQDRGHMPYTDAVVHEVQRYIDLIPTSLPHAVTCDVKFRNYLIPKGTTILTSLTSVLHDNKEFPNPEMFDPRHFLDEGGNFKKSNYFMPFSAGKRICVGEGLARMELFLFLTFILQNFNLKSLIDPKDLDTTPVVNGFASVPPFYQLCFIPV

## CC(=O)NC[C@H]1CN(c2ccc(N3CCOCC3)c(F)c2)C(=O)O1 [Linezolid]
LRSA202
  Viable colony counts in vivo: 4.6 Log10CFU
NRS108
  Viable colony counts in vivo: 2.3 Log10CFU
NF65Y
  Viable colony counts in vivo: 5.1 Log10CFU
Mu50
  Viable colony counts in vivo: 3.1 Log10CFU
LRSA56
  Viable colony counts in vivo: 4.6 Log10CFU
NRS271
  Viable colony counts in vivo: 8.3 Log10CFU
Strain Newman
  Viable colony counts in vivo: 4.9 Log10CFU

## CN(Cc1coc2ccccc12)C[C@@H]1C[C@H]1c1ccc(-c2ccccc2)cc1 [Compound IC-1, 1-((1R,2R)-2-([1,1′-biphenyl]-4-yl)cyclopropyl)-N-(benzofuran-3-ylmethyl)-N-methylmethanamine]
S. aureus strain Newman
  IC50: > 1 µM
[1]
  colors in final photograph of inhibition of staphyloxanthin synthesis: white to yellow from left to right gradually

## CN(C/C=C/c1ccccc1)Cc1cccc2ccccc12 [naftifine hydrochloride, reference compound]
[2]
  HPLC absorption peaks of carotenoid extract: absorption peaks at the original peak position disappeared again

## OC(Cn1cncn1)(Cn1cncn1)c1ccc(F)cc1F [Fluconazole]
Trichophyton rubrum
  MIC80: 1 µg/mL (≈ 3.27 µM)
Microsporum gypseum
  MIC80: 8 µg/mL (≈ 26.1 µM)
Tinea barbae
  MIC80: 2 µg/mL (≈ 6.53 µM)

## C[C@@H]1[C@H](O)[C@@H](C)/C=C/C=C/C=C/C=C/C=C/C=C/C=C/[C@H](O[C@@H]2O[C@H](C)[C@@H](O)[C@H](N)[C@@H]2O)C[C@@H]2O[C@](O)(C[C@@H](O)C[C@@H](O)[C@H](O)CC[C@@H](O)C[C@@H](O)CC(=O)O[C@H]1C)C[C@H](O)[C@H]2C(=O)O [Amphotericin B]
HEK293
  CC50 of compounds on cells: 3.923 µg/mL
HepG2
  CC50 of compounds on cells: 2.956 µg/mL

## CN[C@H](CC(C)C)C(=O)N[C@H]1C(=O)N[C@@H](CC(N)=O)C(=O)N[C@H]2C(=O)N[C@H]3C(=O)N[C@H](C(=O)N[C@H](C(=O)O)c4cc(O)cc(O)c4-c4cc3ccc4O)[C@H](O)c3ccc(c(Cl)c3)Oc3cc2cc(c3O[C@@H]2O[C@H](CO)[C@@H](O)[C@H](O)[C@H]2O[C@H]2C[C@](C)(N)[C@H](O)[C@H](C)O2)Oc2ccc(cc2Cl)[C@H]1O [Vancomycin]
LRSA202
  Viable colony counts in vivo: 5.3 Log10CFU
NRS108
  Viable colony counts in vivo: 2.4 Log10CFU
NF65Y
  Viable colony counts in vivo: 4.6 Log10CFU
Mu50
  Viable colony counts in vivo: 5.4 Log10CFU
LRSA56
  Viable colony counts in vivo: 3.8 Log10CFU
NRS271
  Viable colony counts in vivo: 6.5 Log10CFU
Strain Newman
  Viable colony counts in vivo: 4.3 Log10CFU

## COc1ccc2[nH]c([S+]([O-])Cc3ncc(C)c(OC)c3C)nc2c1 (centres unmarked) [omeprazole, reference compound]
CYP enzyme subtype 2C19
  IC50: 3.88 µM

## CC(=O)N1CCN(c2ccc(OCC3COC(Cn4ccnc4)(c4ccc(Cl)cc4Cl)O3)cc2)CC1 (centres unmarked) [Ketoconazole]
Trichophyton rubrum
  MIC80: 0.5 µg/mL (≈ 0.941 µM)
Microsporum gypseum
  MIC80: 2 µg/mL (≈ 3.76 µM)
Tinea barbae
  MIC80: 0.0625 µg/mL (≈ 0.118 µM)

## C[C@@H](c1ncncc1F)[C@](O)(Cn1cncn1)c1ccc(F)cc1F [Voriconazole]
Trichophyton rubrum
  MIC80: 0.0312 µg/mL (≈ 0.0895 µM)
Microsporum gypseum
  MIC80: 0.25 µg/mL (≈ 0.716 µM)
Tinea barbae
  MIC80: 0.0312 µg/mL (≈ 0.0895 µM)

## COC(=O)c1ccc(/C=C/CN(C)Cc2coc3ccccc23)cc1 [Compound IA-13, (E)-N-methyl-N-[(benzofuran-3-yl)methylene]-3-(4-methylcarboxylatephenyl)prop-2-en-1-amine]
S. aureus strain Newman
  IC50: 0.00945 ± 0.00075 µM

## CC(C)N(C/C=C/c1ccc(C(F)(F)F)cc1)Cc1coc2ccccc12 [Compound IB-3, (E)-N-isopropyl-N-[(benzofuran-3-yl)methylene]-3-(4-trifluoromethylphenyl)-prop-2-en-1-amine]
S. aureus strain Newman
  IC50: > 1 µM

## CN(C/C=C/c1cccc(Cl)c1)Cc1coc2ccccc12 [Compound IA-12, (E)-N-methyl-N-[(benzofuran-3-yl)methylene]-3-(3-chlorophenyl)prop-2-en-1-amine]
S. aureus strain Newman
  IC50: > 1 µM
